According to PMC12624794, “Mechanism of inhibition of acid-mediated transthyretin aggregation by designed peptides” (The Journal of Biological Chemistry, 2025):

Columns and labels:
[1] = test system: patients with TTR amyloidosis; conditions: TTR amyloidosis diagnosed at a later stage; cited from earlier work
Text: (§1) However, the efficacy of tafamidis is reduced for patients with TTR amyloidosis diagnosed at a later stage, when severe organ damage caused by TTR aggregates cannot be reversed ([12]).

[2] = test system: TTR tetramer; conditions: cited from earlier work
Text: as §1

[3] = test system: seeded TTR aggregation; conditions: extracted amyloidogenic fibrils from patients as seeds, in vitro; cited from earlier work
[4] = biological target: T1, TTR^F (C10S-trifluoroacetyl-S85C TTR) (Homo sapiens, UniProt P02766, C30S/S105C); experiment: Real-time 19F-NMR aggregation kinetics at 310 K, pH 4.4 (three-state model); type: biochemical; conditions: 1 μM peptide; pH 4.4, 310 K
T1 construct: made in house
Experimental: At acidic pH, tetramer dissociation is favored, the misfolding of the monomeric intermediate is facilitated, and the downhill aggregation is accelerated ([1]). We used a previously reported ^19F-labeled TTR construct, C10S-trifluoroacetyl-S85C (denoted as TTR^F), to quantify TTR aggregation kinetics using real-time ^19F-NMR. […] To quantify how the presence of peptides alters TTR aggregation kinetics, we added 1 μM of each TabH2 and TabF2 as well as 1 μM ffTAD1 to 2.5 μM TTR^F (tetramer concentration) at pH 4.4 and 310 K and monitored time-dependent population kinetics for tetramer, monomer, and NMR-invisible aggregates (Fig. 3, A and B). […]
To gain kinetic insights into the aggregation pathway, we fit the time-dependent aggregation data of TTR^F using a previously reported three-state kinetic model, tetramer ↔ monomer ↔ aggregate ([18]), where tetramer and monomer are NMR-visible, and aggregates are NMR-invisible. […] Using this model, fits of the time-dependent population changes determined from peak areas yield four first-order apparent rates. […]
^19F-NMR spectra were acquired using Bruker Avance 600 or Avance 700 MHz spectrometers as previously described ([18]). […] Weighted average chemical shift perturbations (CSPs) for backbone amides were calculated using (Δδ^1H)^2+(Δδ^15N/5)^2 , where Δ δ means chemical shift differences for either ^1H or ^15N with and without peptides.

Structure (SMILES)	efficacy in late-diagnosed patients [1]	binding to TTR tetramer [2]	effect on tetramer dissociation ([2]; stabilization of the tetramer)	inhibition of seeded TTR aggregation [3]	reduction of steady-state population of NMR-invisible aggregates vs TTR^F-only control [4] [%]
O=C(O)c1ccc2nc(-c3cc(Cl)cc(Cl)c3)oc2c1 [Tafamidis]	reduced	binds to the central cavity of the TTR tetramer	suppresses dissociation to monomers	does not effectively inhibit seeded TTR aggregation	
CC(C)[C@H](NC(=O)[C@H](C)NC(=O)[C@H](Cc1ccc(O)cc1)NC(=O)[C@H](CO)NC(=O)[C@@H](NC(=O)[C@@H]1CCCN1C(=O)[C@H](CC(N)=O)NC(=O)[C@@H](NC(=O)[C@@H](NC(=O)[C@H](Cc1ccc(O)cc1)NC(=O)[C@H](CO)NC(=O)[C@H](CCCNC(=N)N)NC(=O)[C@H](CCCNC(=N)N)NC(=O)[C@H](CCCNC(=N)N)NC(=O)[C@H](CCCNC(=N)N)NC(=O)[C@H](CCC(=O)O)NC(=O)[C@@H](NC(=O)[C@H](CO)NC(=O)CNC(=O)CNC(=O)CNC(=O)[C@H](CCC(=O)O)NC(=O)[C@@H](NC(=O)[C@H](Cc1ccccc1)NC(=O)[C@H](CCC(=O)O)NC(=O)[C@@H](NC(=O)[C@H](Cc1ccccc1)NC(=O)[C@@H]1CCCN1C(=O)[C@H](Cc1c[nH]cn1)NC(=O)[C@H](C)NC(=O)[C@@H](NC(=O)[C@H](Cc1c[nH]cn1)NC(=O)[C@H](CCCNC(=N)N)NC(=O)[C@H](CCCNC(=N)N)NC(=O)[C@H](CCCNC(=N)N)NC(=O)[C@H](CCCNC(=N)N)NC(=O)[C@H](Cc1c[nH]cn1)NC(=O)[C@H](Cc1c[nH]cn1)NC(=O)[C@H](Cc1c[nH]cn1)NC(=O)[C@H](Cc1c[nH]cn1)NC(=O)[C@H](Cc1c[nH]cn1)NC(=O)[C@@H](N)Cc1c[nH]cn1)C(C)C)C(C)C)[C@@H](C)O)[C@@H](C)O)C(C)C)[C@@H](C)O)[C@@H](C)O)C(=O)N[C@H](C(=O)O)[C@@H](C)O [ffTAD1]					~8
